Data reported in PubChem BioAssay AID1918939 (Molecular Pharmacology Branch, DTP, NCI, 2023).
“And” between values parts separate entries of the source, which are not always exact repeats. Equal entries are not always repeated.

System: 653999-131-R-J2-PDC complex spheroid viability
Experiment: Anticancer human tumor 653999-131-R-J2-PDC patient-derived lung adenocarcinoma cell line growth inhibition
Conditions: for viability, T/C: stronger effect = lower value
Procedure, shortened: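 Complex spheroids of tumor cells with HUVEC and human MSCs, exposed to iadademstat combined with other agents. Each agent tested in half-log steps from near clinical Cmax (else 10 microM top), DMSO ≤0.25%.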

[1] = curve of first compound, second compound 0.1 µM
[2] = curve of first compound, second compound 0.316 µM
[3] = curve of first compound, second compound 1 µM
[4] = curve of first compound, second compound 3.16 µM
[5] = curve of first compound, second compound 10 µM
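Also: spheroids exposed to agents for seven days before readout.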

Structure (SMILES): CC(C)CC(NC(=O)C(Cc1ccccc1)NC(=O)c1cnccn1)B(O)O (configuration not stated)
- viability, T/C (compound 0.000316 µM): 114% and 119%
- viability, T/C (compound 0.001 µM): 103% and 38.1%
- viability, T/C (compound 0.00316 µM): 23.9% and 13.2%
- viability, T/C (compound 0.01 µM): 1.83% and 5.29%
- viability, T/C (compound 0.0316 µM): 2.67% and 1.3%
- viability, T/C (compound 0.1 µM): 0.76% and 1.16%
- IC50 (curve of compound): 2.17 nM and 0.852 nM

Structure (SMILES): CC(C)CC(NC(=O)CNC(=O)c1cc(Cl)ccc1Cl)B1OC(=O)CC(CC(=O)O)(C(=O)O)O1 (configuration not stated) + NC1CC1c1ccc(-c2cccc(O)c2)cc1
- IC50 [1]: 21.1 nM
- IC50 [2]: 15.1 nM
- IC50 [3]: 16.5 nM
- IC50 [4]: 14.7 nM
- IC50 [5]: 9.33 nM
- viability, T/C (second compound 0.1 µM, first compound 0.000316 µM): 88.6%
- viability, T/C (second compound 0.1 µM, first compound 0.001 µM): 103%
- viability, T/C (second compound 0.1 µM, first compound 0.00316 µM): 109%
- viability, T/C (second compound 0.1 µM, first compound 0.01 µM): 73%
- viability, T/C (second compound 0.1 µM, first compound 0.0316 µM): 38.5%
- viability, T/C (second compound 0.1 µM, first compound 0.1 µM): 19.6%
- viability, T/C (second compound 0.316 µM, first compound 0.000316 µM): 97.4%
- viability, T/C (second compound 0.316 µM, first compound 0.001 µM): 91.7%
- viability, T/C (second compound 0.316 µM, first compound 0.00316 µM): 117%
- viability, T/C (second compound 0.316 µM, first compound 0.01 µM): 62.3%
- viability, T/C (second compound 0.316 µM, first compound 0.0316 µM): 38.2%
- viability, T/C (second compound 0.316 µM, first compound 0.1 µM): 17.5%
- viability, T/C (second compound 1 µM, first compound 0.000316 µM): 77.9%
- viability, T/C (second compound 1 µM, first compound 0.001 µM): 87%
- viability, T/C (second compound 1 µM, first compound 0.00316 µM): 123%
- viability, T/C (second compound 1 µM, first compound 0.01 µM): 68.2%
- viability, T/C (second compound 1 µM, first compound 0.0316 µM): 33%
- viability, T/C (second compound 1 µM, first compound 0.1 µM): 20.4%
- viability, T/C (second compound 3.16 µM, first compound 0.000316 µM): 92.8%
- viability, T/C (second compound 3.16 µM, first compound 0.001 µM): 90.8%
- viability, T/C (second compound 3.16 µM, first compound 0.00316 µM): 116%
- viability, T/C (second compound 3.16 µM, first compound 0.01 µM): 61.7%
- viability, T/C (second compound 3.16 µM, first compound 0.0316 µM): 38.7%
- viability, T/C (second compound 3.16 µM, first compound 0.1 µM): 14.7%
- viability, T/C (second compound 10 µM, first compound 0.000316 µM): 80%
- viability, T/C (second compound 10 µM, first compound 0.001 µM): 84.6%
- viability, T/C (second compound 10 µM, first compound 0.00316 µM): 113%
- viability, T/C (second compound 10 µM, first compound 0.01 µM): 47.3%
- viability, T/C (second compound 10 µM, first compound 0.0316 µM): 23.9%
- viability, T/C (second compound 10 µM, first compound 0.1 µM): 9.99%

Structure (SMILES): COc1cc(Nc2ncc3c(n2)-c2ccc(Cl)cc2C(c2c(F)cccc2OC)=NC3)ccc1C(=O)O
- viability, T/C (compound 0.00316 µM): 96.9% and 78.1%
- viability, T/C (compound 0.01 µM): 90.6% and 74%
- viability, T/C (compound 0.0316 µM): 68.8% and 68.2%
- viability, T/C (compound 0.1 µM): 70% and 73.6%
- viability, T/C (compound 0.316 µM): 73.4% and 78%
- viability, T/C (compound 1 µM): 68.2% and 64.2%
- IC50 (curve of compound): > 1000 nM

Structure (SMILES): COc1cc(C2c3cc4c(cc3C(OC3OC5COC(C)OC5C(O)C3O)C3COC(=O)C23)OCO4)cc(OC)c1O (configuration not stated) + NC1CC1c1ccc(-c2cccc(O)c2)cc1
- IC50 [1]: 166 nM
- IC50 [2]: 135 nM
- IC50 [3]: 110 nM
- IC50 [4]: 97.6 nM
- IC50 [5]: 248 nM
- viability, T/C (second compound 0.1 µM, first compound 0.00949 µM): 83.5%
- viability, T/C (second compound 0.1 µM, first compound 0.03 µM): 67.2%
- viability, T/C (second compound 0.1 µM, first compound 0.0949 µM): 57.9%
- viability, T/C (second compound 0.1 µM, first compound 0.3 µM): 41.4%
- viability, T/C (second compound 0.1 µM, first compound 0.949 µM): 37%
- viability, T/C (second compound 0.1 µM, first compound 3 µM): 27.8%
- viability, T/C (second compound 0.316 µM, first compound 0.00949 µM): 75.4%
- viability, T/C (second compound 0.316 µM, first compound 0.03 µM): 62.9%
- viability, T/C (second compound 0.316 µM, first compound 0.0949 µM): 50.3%
- viability, T/C (second compound 0.316 µM, first compound 0.3 µM): 45.9%
- viability, T/C (second compound 0.316 µM, first compound 0.949 µM): 34.8%
- viability, T/C (second compound 0.316 µM, first compound 3 µM): 25.2%
- viability, T/C (second compound 1 µM, first compound 0.00949 µM): 75.7%
- viability, T/C (second compound 1 µM, first compound 0.03 µM): 64%
- viability, T/C (second compound 1 µM, first compound 0.0949 µM): 51.8%
- viability, T/C (second compound 1 µM, first compound 0.3 µM): 38.3%
- viability, T/C (second compound 1 µM, first compound 0.949 µM): 35.9%
- viability, T/C (second compound 1 µM, first compound 3 µM): 26.1%
- viability, T/C (second compound 3.16 µM, first compound 0.00949 µM): 77.3%
- viability, T/C (second compound 3.16 µM, first compound 0.03 µM): 66.2%
- viability, T/C (second compound 3.16 µM, first compound 0.0949 µM): 49.4%
- viability, T/C (second compound 3.16 µM, first compound 0.3 µM): 39.5%
- viability, T/C (second compound 3.16 µM, first compound 0.949 µM): 32.8%
- viability, T/C (second compound 3.16 µM, first compound 3 µM): 30.5%
- viability, T/C (second compound 10 µM, first compound 0.00949 µM): 73%
- viability, T/C (second compound 10 µM, first compound 0.03 µM): 65.9%
- viability, T/C (second compound 10 µM, first compound 0.0949 µM): 61.5%
- viability, T/C (second compound 10 µM, first compound 0.3 µM): 46.3%
- viability, T/C (second compound 10 µM, first compound 0.949 µM): 39%
- viability, T/C (second compound 10 µM, first compound 3 µM): 31.1%

Structure (SMILES): NC1CCC(NC2CC2c2ccccc2)CC1 (configuration not stated)
- viability, T/C (compound 0.316 µM): 85.8% and 90%
- viability, T/C (compound 1 µM): 86.8% [middle of 25 runs]
- IC50 (compound alone, run of 01/18/2022): > 10000 nM
